Test results: patent US20080220497A1, “Modulation of protein functionalities” (priority 2003, published 2008)
Each block holds one compound with its values, some of them ahead of it.

How the values were obtained:
p38-alpha kinase = p38-alpha kinase (Homo sapiens, UniProt Q16539); settings: time-dependent if IC50 values decrease with reaction time (more than two-fold in four hours)
Procedure: This dilution can be done automatically on a Tecan (or similar) robotic workstation or performed manually. • 3. […] This step can be performed automatically on a Tecan (or similar) robotic workstation or performed manually. • 4. Incubate at 30° C. or room temp for 2 h, depending on protein stability. • 5. Read at emission wavelength 420 nm upon excitation at 340 nm.

Abl kinase = assay: Thermal denaturation of Abl kinase; format: binding, human; settings: 1 μM Abl kinase, 20 μM small molecule
Procedure: (§1) Denaturation was monitored by measuring the absolute absorbance of the solutions at an appropriate wavelength (typically 230 nm and 240 nm) as a function of temperature. As the protein became denatured, additional UV absorbing functional groups became exposed causing an increase in absorbance at the melting temperature. […] The thermal data were collected using Agilent spectrophotometers and ChemStation UV/Vis Thermal Denaturation software.
5 μL of 40 μM Abl kinase was mixed with 195 μL of the small molecule/buffer solution. The final concentration was 1 μM Abl kinase and 20 μM small molecule. The final protein and buffer solution was mixed gently using a pipetter to minimize denaturing due to over aggressive mixing. The final solution was transferred to a 50 μL cuvette for analysis.
Test solutions containing only the Abl kinase were prepared as follows: 5 μL of 40 μM Abl kinase was mixed with 195 μL Buffer to give a concentration of 1 μM Abl kinase in Buffer. The protein and buffer solution was mixed gently using a pipetter to minimize denaturing due to over aggressive mixing. The final solution was transferred to a 50 μL cuvette for analysis.
(§2) A first derivative calculation with data smoothing was applied to the resulting data to report the point of inflection as the melting temperature.

c-Abl kinase [1] = target: T1, c-Abl kinase (Homo sapiens, UniProt P00519); assay: Fluorescence affinity assay for Abl kinase (PD 166326 fluoroprobe); format: binding; settings: read-out: EC50 for accelerating the binding of fluoroprobe PD 166326; c-Abl kinase; early time-point binding
T1 construct: other: c-Abl kinase
T1 sequence (P00519 1-1149 isoform P00519-2): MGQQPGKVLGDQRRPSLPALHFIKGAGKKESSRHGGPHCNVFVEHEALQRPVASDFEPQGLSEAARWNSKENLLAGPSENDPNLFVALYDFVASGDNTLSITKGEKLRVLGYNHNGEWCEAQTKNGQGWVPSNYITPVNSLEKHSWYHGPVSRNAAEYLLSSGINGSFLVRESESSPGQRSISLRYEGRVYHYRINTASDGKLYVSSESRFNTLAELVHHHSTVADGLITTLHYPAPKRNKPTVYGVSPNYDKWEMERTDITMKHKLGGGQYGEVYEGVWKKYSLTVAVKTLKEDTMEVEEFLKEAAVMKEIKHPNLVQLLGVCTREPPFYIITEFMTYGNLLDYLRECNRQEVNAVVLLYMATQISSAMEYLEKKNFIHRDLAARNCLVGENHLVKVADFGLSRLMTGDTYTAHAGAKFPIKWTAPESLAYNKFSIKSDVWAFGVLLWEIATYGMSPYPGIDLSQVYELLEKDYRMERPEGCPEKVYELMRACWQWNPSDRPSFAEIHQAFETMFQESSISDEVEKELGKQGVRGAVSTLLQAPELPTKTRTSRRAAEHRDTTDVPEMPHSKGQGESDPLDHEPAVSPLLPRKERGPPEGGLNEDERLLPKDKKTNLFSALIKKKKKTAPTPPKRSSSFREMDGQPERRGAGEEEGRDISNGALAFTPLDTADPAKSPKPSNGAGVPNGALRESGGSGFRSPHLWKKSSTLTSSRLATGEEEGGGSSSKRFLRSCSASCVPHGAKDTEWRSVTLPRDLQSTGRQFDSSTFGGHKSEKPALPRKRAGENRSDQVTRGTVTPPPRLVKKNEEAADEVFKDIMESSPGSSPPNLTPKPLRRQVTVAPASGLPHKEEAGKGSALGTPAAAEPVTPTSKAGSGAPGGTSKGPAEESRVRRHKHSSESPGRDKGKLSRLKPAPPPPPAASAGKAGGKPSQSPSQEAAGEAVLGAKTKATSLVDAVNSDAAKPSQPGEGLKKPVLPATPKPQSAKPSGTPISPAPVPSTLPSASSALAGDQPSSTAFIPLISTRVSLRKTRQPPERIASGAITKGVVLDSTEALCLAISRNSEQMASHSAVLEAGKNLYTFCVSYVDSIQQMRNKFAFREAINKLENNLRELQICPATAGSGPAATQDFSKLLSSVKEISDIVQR
Procedure: (§3) Tris buffer: 90 mM Tris-HCl buffer, pH 7.5, containing 0.2% octyl-glucoside • 4. […] Polarstar Optima plate reader (BMG) or equivalent
(§4) B. Procedure: • 1. Make Solution A containing 80 nM Abl in the Tris buffer • 2. Serially dilute test compounds in Solution A (50 uL per well) • 3. Incubate the plate at room temp for 0.5 h • 4.
(§5) Abl kinase was preincubated with test compounds for […] in the absence of fluoroprobe. […] By comparison of RFU (relative fluorescence units) values with that of a control (in the absence of small molecule modulators), the percentage of modulation at each concentration of the small molecules was calculated.

V599E Braf kinase = target: T2, V599E Braf kinase (Homo sapiens, UniProt P15056, V600E); assay: Thermal denaturation of oncogenic V599E Braf kinase; format: binding; settings: 1.4 μM V599E Braf kinase, 20 μM small molecule; read-out: ΔTm (° C.) relative to unphosphorylated B-Raf(V599E)
T2 construct: 6×His-tag (N); made in house; host or cells: Sf9 insect cells (baculovirus)
T2 sequence (P15056 with tags, fused parts or gaps V600E): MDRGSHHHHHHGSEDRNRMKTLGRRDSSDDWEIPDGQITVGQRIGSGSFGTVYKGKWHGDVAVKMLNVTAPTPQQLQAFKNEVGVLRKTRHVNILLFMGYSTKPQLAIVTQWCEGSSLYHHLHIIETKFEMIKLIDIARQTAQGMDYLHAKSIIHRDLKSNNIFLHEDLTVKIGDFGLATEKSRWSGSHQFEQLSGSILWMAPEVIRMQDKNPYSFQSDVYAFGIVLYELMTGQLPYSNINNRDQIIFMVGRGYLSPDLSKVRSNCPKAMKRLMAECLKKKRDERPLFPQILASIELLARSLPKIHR
Procedure: as §1
(§6) The final solution was transferred to a 50 μL cuvette for analysis.
as §6, §2

c-Abl kinase [2] = assay: Fluorescence affinity assay for Abl kinase (PD 166326 fluoroprobe); format: binding, human; settings: 100 nM PD 166326, 40 nM Abl kinase
Procedure: as §3, §4, §5

[3] = target: T3, unphosphorylated p38-alpha kinase (Homo sapiens, UniProt Q16539, DEL261-261); assay: Fluorescence affinity assay, unphosphorylated p38-alpha kinase; format: binding
T3 construct: 48 (6×His-TEV tag, full length); 6×His-TEV tag (N); purchased Decode Genetics, Inc; host or cells: E. coli
T3 sequence (Q16539 with tags, fused parts or gaps DEL261-261): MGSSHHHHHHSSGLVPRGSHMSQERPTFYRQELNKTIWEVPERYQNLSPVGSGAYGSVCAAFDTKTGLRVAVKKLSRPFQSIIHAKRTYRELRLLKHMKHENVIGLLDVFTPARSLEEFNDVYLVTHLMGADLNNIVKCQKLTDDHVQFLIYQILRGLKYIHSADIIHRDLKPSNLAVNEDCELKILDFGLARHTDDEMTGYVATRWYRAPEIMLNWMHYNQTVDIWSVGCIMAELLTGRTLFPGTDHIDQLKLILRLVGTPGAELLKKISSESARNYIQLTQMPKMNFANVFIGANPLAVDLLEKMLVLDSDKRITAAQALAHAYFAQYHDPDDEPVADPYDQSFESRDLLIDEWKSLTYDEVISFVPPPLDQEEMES
Description: (§7) This fluorescence affinity assay is utilized in an affinity-based screen to identify small molecules which bind into switch control pockets of protein kinases. Binding of small molecule switch inhibitors displaces the switch control ligand phenylalanine of the DFG motif into an orientation which sterically blocks the ATP pocket. Such inhibitor-induced blockade of the ATP pocket is registered as an inhibition of binding of the fluoroprobe into the ATP pocket.
(§8) • 1. p38-alpha kinase • a. […] Polarstar Optima plate reader (BMG)
(§9) • 1. […] This dilution can be done automatically on a Tecan (or similar) robotic workstation or performed manually. • 3. Mix Solution A with the diluted compound solutions following Step 3 of Table 22. This step can be performed automatically on a Tecan (or similar) robotic workstation or performed manually. • 4. Incubate at 30° C. or room temp for 2 h, depending on protein stability. • 5. Read at emission wavelength 420 nm upon excitation at 340 nm.
The reaction was initiated by addition of the enzyme. […] By comparison of RFU (relative fluorescence units) values with that of a control (in the absence of small molecule modulators), the percentage of inhibition at each concentration of the small molecules was calculated. IC50 values for the small molecule modulators were calculated from the % inhibition values obtained at a range of concentrations of the small molecule modulators using Prism (available from GraphPad, Inc.). When time-dependent inhibition was assessed, the plate was read at multiple reaction times such as 0.5, 1, 2, 3, 4 and 6 hours. The IC50 values were calculated at each time point. An inhibition was assigned as time-dependent if the IC50 values decrease with the reaction time (more than two-fold in four hours).
(§10) A ratio greater than 1.0 indicates a preference for inhibiting the unphosphorylated form of p38-alpha kinase relative to the doubly phosphorylated form. A ratio less than 1.0 indicates a preference for inhibiting the doubly phosphorylated form of p38-alpha kinase relative to the unphosphorylated form.

[4] = target: T4, doubly phosphorylated p38-alpha kinase (Homo sapiens, UniProt Q16539); assay: Thermal denaturation of doubly phosphorylated p38-alpha kinase; format: binding; settings: 0.5 μM p38-alpha kinase, 20 μM small molecule
T4 construct: 6xHis ([…], seen only in the listing) (C); purchased Roche Applied Diagnostics
T4 sequence (Q16539 with tags, fused parts or gaps): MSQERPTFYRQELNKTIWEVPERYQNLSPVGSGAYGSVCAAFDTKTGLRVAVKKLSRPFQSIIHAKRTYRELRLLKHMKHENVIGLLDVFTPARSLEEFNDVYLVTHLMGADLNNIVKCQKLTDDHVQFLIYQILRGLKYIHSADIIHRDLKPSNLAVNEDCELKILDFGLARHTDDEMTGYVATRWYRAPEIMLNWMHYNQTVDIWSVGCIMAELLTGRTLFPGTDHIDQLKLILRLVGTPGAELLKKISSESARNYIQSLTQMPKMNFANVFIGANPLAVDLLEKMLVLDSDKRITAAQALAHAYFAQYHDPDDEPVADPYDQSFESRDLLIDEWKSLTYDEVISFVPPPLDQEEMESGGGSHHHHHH
Procedure: as §1
The final concentration was 0.5 μM p38-alpha kinase and 20 μM small molecule. The final protein and buffer solution was mixed gently using a pipetter to minimize denaturing due to over aggressive mixing. The final solution was transferred to a 50 μL cuvette for analysis.
The protein and buffer solution was mixed gently using a pipetter to minimize denaturing due to over aggressive mixing. The final solution was transferred to a 50 μL cuvette for analysis.
as §2

[5] = target: T4, doubly phosphorylated p38-alpha kinase; assay: Fluorescence affinity assay, doubly phosphorylated p38-alpha kinase; format: binding; settings: ~24 nM enzyme; 1.0 uM SKF-86002; read-out: FP IC50 P-p38-alpha
Description: as §7, §8
as §9, with “nm. […]” for “nm.”
as §10

[6] = target: T3, unphosphorylated p38-alpha kinase; assay: Thermal denaturation of unphosphorylated p38-alpha kinase; format: binding; settings: […] p38-alpha kinase, 15 μM small molecule
Description: as §1
The final protein and buffer solution was mixed gently using a pipetter to minimize denaturing due to over aggressive mixing. The final solution was transferred to a 50 μL cuvette for analysis.
as §6, §2

Phospho-p38-alpha kinase = target: T5, Phospho-p38-alpha kinase (Homo sapiens, UniProt Q16539); assay: Spectrophotometric assay for phospho-p38-alpha kinase; settings: p38-alpha kinase biochemical assay
T5 construct: 6xHis ([…], seen only in the listing) (C); purchased Roche Applied Diagnostics
T5 sequence (Q16539 with tags, fused parts or gaps): as above
Procedure: Spectrophotometric Assay for Phospho-p38-alpha Kinase
NADH (Sigma): 5.6 mM • 5. Phosphoenol pyruvate (Sigma): 20 mM • 6. […] ATP (20 mM) • 8. […] Polarstar Optima plate reader (BMG)
IC50 determinations were performed using a serial dilution scheme to dilute inhibitor in DMSO, followed by further dilution in reaction buffer, and finally mixing with Mixture 1 (Table 29) which contains all the enzymes. The dilution procedure ensured that the test compound at various concentrations was properly dissolved into the buffer and enzyme reaction mixture.
Prepare Mixture 1 as described in Table 29 (use within 30 min) • 3. Mix the diluted compound with Mixture 1 following Step 3 of Table 28 • 4. Incubate the 384-well plate at 30° C. for 2 hours • 5. Add 1 μL of 30 mM ATP into each well and mix well • 6. Read on the microplate reader with one point every min for at least 2.5 hours at 30° C.
A linear regression was applied to data collected from t=1.5 hr to 2.5 hr to obtain the reaction rate for each data set. The data were approximately linear within this time frame. Percentage of inhibition was calculated by comparison of the rate in the presence of a compound with that of the control. IC50 values were calculated from a series of % inhibition values determined at a range of inhibitor concentrations using GraphPad Prism (version 4).

Sequence of p38-alpha kinase (Q16539 whole entry): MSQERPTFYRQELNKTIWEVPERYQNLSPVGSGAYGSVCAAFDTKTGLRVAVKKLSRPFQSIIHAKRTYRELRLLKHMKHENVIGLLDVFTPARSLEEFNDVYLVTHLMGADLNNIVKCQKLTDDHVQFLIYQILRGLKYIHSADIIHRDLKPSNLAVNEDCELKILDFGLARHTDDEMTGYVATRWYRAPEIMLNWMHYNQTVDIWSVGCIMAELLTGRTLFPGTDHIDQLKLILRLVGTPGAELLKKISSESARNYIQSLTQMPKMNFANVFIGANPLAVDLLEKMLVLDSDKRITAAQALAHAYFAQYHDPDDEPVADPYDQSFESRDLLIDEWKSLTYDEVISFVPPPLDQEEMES

SMILES: CC(C)(C)c1cc(NC(=O)Nc2cccc3ccccc23)n(-c2ccc(CN)cc2)n1 [Example 45]
Time-dependent (p38-alpha kinase): No

SMILES: CC(C)(C)c1cc(NC(=O)Nc2cccc(Cl)c2Cl)n(-c2ccc3c(c2)CNCC3)n1 [Example 64, 1-(3-tert-butyl-1-(1,2,3,4-tetrahydroisoquinolin-7-yl)-1H-pyrazol-5-yl)-3-(2,3-dichlorophenyl)urea]
ΔTm (° C.) relative to unphosphorylated Abl (Abl kinase): 2.6 °C
EC50 (c-Abl kinase [1]): 43 nM

EC50 (c-Abl kinase [1]): 81 nM
SMILES: CC(C)(C)c1cc(NC(=O)Nc2cccc(Cl)c2Cl)n(-c2ccc3c(c2)C[C@@H](C(=O)O)NC3)n1 [Example 65, (3S)-6-(3-tert-butyl-5-(3-(2,3-dichlorophenyl)ureido)-1H-pyrazol-1-yl)-1,2,3,4-tetrahydroisoquinoline-3-carboxylic acid]

SMILES: CC(C)(C)c1cc(NC(=O)Nc2cccc(Cl)c2Cl)n(-c2ccc3c(c2)CCNC3)n1 [Example 66, 1-(3-tert-butyl-1-(1,2,3,4-tetrahydroisoquinolin-6-yl)-1H-pyrazol-5-yl)-3-(2,3-dichlorophenyl)urea]
ΔTm at 20 µM (V599E Braf kinase): 15.8 °C
ΔTm (° C.) relative to unphosphorylated Abl (Abl kinase): 3.2 °C
EC50 (c-Abl kinase [1]): 30 nM
Effect on binding of fluoroprobe PD 166326 to Abl kinase (c-Abl kinase [2]): concentration-dependent acceleration of the binding of fluoroprobe PD 166326

SMILES: CC(C)(C)c1cc(NC(=O)Nc2cccc3ccccc23)n(-c2ccc(CO)cc2)n1 [Example 72]
Ratio IC50s ([3]; doubly phosphorylated vs unphosphorylated p38-alpha, >1.0 = preference for unphosphorylated form): 1.7
IC50 ([3]; ~24 nM enzyme, 1.0 uM SKF-86002, read-out: FP IC50 U-p38-alpha): 40 nM
ΔTm (° C.) relative to doubly phosphorylated p38 [4]: 8.1 °C
IC50 [5]: 67 nM
ΔTm (° C.) relative to unphosphorylated apo p38 [6]: 11.3 °C
Competition with ATP (Phospho-p38-alpha kinase): non-competitive with ATP
